Source: patent EP2249825B1, “TREATMENT METHODS AND COMPOSITIONS FOR LUNG CANCER, ADENOCARCINOMA, AND OTHER MEDICAL CONDITIONS” (BIONUMERIK PHARMACEUTICALS, INC., priority 2008, dated 2009)

Tests used:
adenocarcinoma = assay: Japan Phase III Clinical Trial: patient survival, adenocarcinoma; type: in vivo, patients
From the text: (§1) As utilized herein, the term "clinical trial" or "trial", refers to the Japan Phase III Clinical Trial disclosed in the present invention which was utilized to show the ability of Tavocept™ (also referred to in the literature as disodium 2,2'-dithio-bis-ethane sulfonate, dimesna, or BNP7787) to prevent and/or reduce peripheral neuropathy induced by paclitaxel/cisplatin combination therapy. The incidence and severity of adverse reactions, time to their onset, etc. and the like, were compared between patients treated with Tavocept™ and those given a placebo using Quality of Life (QOL) questionnaires (i.e., Peripheral Neuropathy Questionnaire (PNQ^©) and CIPN-20)) and the National Cancer Institute - Common Toxicity Criteria (NCI-CTC). The effects of Tavocept™ on the Quality of Life (QOL) of patients under anticancer treatment was also evaluated using the QOL questionnaire, EORTC QLQ-C30. Whether or not Tavocept™ would affect the efficacy of paclitaxel/cisplatin combination therapy was also evaluated based on the response rate, aggravation-free survival period, and total survival period. […]

[1] = system: non-small cell lung carcinoma (NSCLC); assay: Japan Phase III Clinical Trial: patient survival, NSCLC; type: in vivo, patients
From the text: (§2) As utilized herein, the term "clinical trial" or "trial", refers to the Japan Phase III Clinical Trial disclosed in the present invention which was utilized to show the ability of Tavocept™ (also referred to in the literature as disodium 2,2'-dithio-bis-ethane sulfonate, dimesna, or BNP7787) to prevent and/or reduce peripheral neuropathy induced by paclitaxel/cisplatin combination therapy. The incidence and severity of adverse reactions, time to their onset, etc. and the like, were compared between patients treated with Tavocept™ and those given a placebo using Quality of Life (QOL) questionnaires (i.e., Peripheral Neuropathy Questionnaire (PNQ^©) and CIPN-20)) and the National Cancer Institute - Common Toxicity Criteria (NCI-CTC). The effects of Tavocept™ on the Quality of Life (QOL) of patients under anticancer treatment was also evaluated using the QOL questionnaire, EORTC QLQ-C30. Whether or not Tavocept™ would affect the efficacy of paclitaxel/cisplatin combination therapy was also evaluated based on the response rate, aggravation-free survival period, and total survival period. In order to make all these evaluations, Tavocept™ (approximately14-22 g/m^2, most preferably approximately 18.4 g/m^2) or placebo (0.9% NaCl) was administered to non-small cell lung carcinoma (NSCLC) patients, including adenocarcinoma patients, under chemotherapy with paclitaxel (approximately 160-190 mg/m^2, most preferably approximately 175 mg/m^2) and cisplatin (approximately 60-100 mg/m^2, most preferably approximately 80 mg/m^2), every 3 weeks (and repeated for a minimum of 2 cycles).
(§3) Data was recently unblinded from a multicenter double-blind randomized placebo-controlled Phase III clinical trial of the Formula (I) compound Tavocept™ (also known as BNP7787, disodium 2,2'-dithio-bis-ethane sulfonate, and dimesna) conducted in Japan (hereinafter the "Japan Phase III Clinical Trial") and involving patients with advanced non-small cell lung carcinoma (NSCLC) who received the chemotherapeutic drugs paclitaxel and cisplatin. […]

[2] = system: non-small cell lung carcinoma (NSCLC); assay: Japan Phase III Clinical Trial: tumor response rate to chemotherapy; type: in vivo, patients; details: Tavocept arm with paclitaxel and cisplatin, Fig. 4
From the text: as §1

[3] = system: patients with advanced non-small cell lung carcinoma (NSCLC); assay: Japan Phase III Clinical Trial: chemotherapy-induced peripheral neuropathy (Peripheral Neuropathy Questionnaire, PNQ); type: in vivo
From the text: as §1, with “The incidence and severity of adverse reactions, time to their onset, etc. and the like, were compared between patients treated with Tavocept™ and those given a placebo using Quality of Life (QOL) questionnaires (i.e., Peripheral Neuropathy Questionnaire (PNQ^©) and CIPN-20)) and the National Cancer Institute - Common Toxicity Criteria (NCI-CTC).” left out
The Japan Phase III Clinical Trial was conducted as a double-blind study because peripheral neuropathy is diagnosed based on subjective symptoms evaluated through clinical interviews, lab tests, and the like. […] Because the severity of peripheral neuropathy is evaluated based on patients' reports (i.e., subjective symptoms), the Peripheral Neuropathy Questionnaire (PNQ^©) was used in primary evaluation. […]

[4] = system: non-small cell lung carcinoma (NSCLC) patients; assay: Japan Phase III Clinical Trial: other chemotherapy-related symptoms and toxicities; type: in vivo
From the text: as §2
Data was recently unblinded from a multicenter double-blind randomized placebo-controlled Phase III clinical trial of the Formula (I) compound Tavocept™ (also known as BNP7787, disodium 2,2'-dithio-bis-ethane sulfonate, and dimesna) conducted in Japan (hereinafter the "Japan Phase III Clinical Trial") and involving patients with advanced non-small cell lung carcinoma (NSCLC) who received the chemotherapeutic drugs paclitaxel and cisplatin.
Patients admitted into the trial included those patients without previous treatment (excluding surgical treatment, administration of Picibanil into the serous membrane, irradiation of 30% or less hematopoietic bone, or oral chemotherapeutic agents within 3 months of entry in the trial).
The Japan Phase III Clinical Trial was conducted as a double-blind study because peripheral neuropathy is diagnosed based on subjective symptoms evaluated through clinical interviews, lab tests, and the like. Accordingly, evaluations by both physicians and patients are highly important. […] A placebo was used as control since there is no established therapy or drug for preventing peripheral neuropathy. Because the severity of peripheral neuropathy is evaluated based on patients' reports (i.e., subjective symptoms), the Peripheral Neuropathy Questionnaire (PNQ^©) was used in primary evaluation. CIPN-20 and NCI-CTC were used in secondary evaluation. The incidence and severity of adverse reactions, time to their onset, etc. and the like, were compared between patients treated with Tavocept™ and those given a placebo using the aforementioned methods.
In order to conduct the present trial, Tavocept™ (approximately14-22 g/m^2, most preferably approximately 18.4 g/m^2) or placebo (0.9% NaCl) was administered to non-small cell lung carcinoma (NSCLC) patients receiving chemotherapy with paclitaxel (approximately 160-190 mg/m^2, most preferably approximately 175 mg/m^2) and cisplatin (approximately 60-100, most preferably approximately 80 mg/m^2), every 3 weeks (and repeated for a minimum of 2 cycles).

[5] = system: non-small cell lung carcinoma (NSCLC) patients; assay: Japan Phase III Clinical Trial: decrease in hemoglobin, erythrocyte and hematocrit levels; type: in vivo; details: Tavocept arm with paclitaxel and cisplatin, Fig. 3
From the text: as §2, §3

[6] = clinical trial population, summary statement

## O=S(=O)([O-])CCSSCCS(=O)(=O)[O-].[Na+].[Na+] [Tavocept™, disodium 2,2'-dithio-bis-ethane sulfonate]
adenocarcinoma; adenocarcinoma patients, paclitaxel/Tavocept/cisplatin vs paclitaxel/saline placebo/cisplatin, Fig. 7
  increase in median survival time: up to 138 days
adenocarcinoma; patients with adenocarcinoma receiving Tavocept and chemotherapy, summary statement
  survival time: medically-important increase
[1]; NSCLC patients, paclitaxel/Tavocept/cisplatin vs paclitaxel/saline placebo/cisplatin, Fig. 5
  increase in median survival time: up to 40 days
[1]; female NSCLC patients, paclitaxel/Tavocept/cisplatin vs paclitaxel/saline placebo/cisplatin, Fig. 6
  survival period: longer survival period
[1]; patients with advanced NSCLC receiving Tavocept and chemotherapy, summary statement
  survival times: increased survival times
[2]; Independent Radiological Committee, placebo arm 28.6%
  response rate as measured by the IRC: 33.3%
[2]; placebo arm 33.0%
  Response Rate, as measured by physicians: 41.9%
[3]; Tavocept and chemotherapy vs chemotherapy and placebo, summary statement
  chemotherapy-induced peripheral neuropathy: medically-important reductions
[3]; paclitaxel/Tavocept/cisplatin regimen vs paclitaxel/saline placebo/cisplatin regimen, PNQ, Fig. 1
  reduction in severe (Grade D or E) peripheral neuropathy: ~50%
[4]; [6]
  chemotherapy-induced kidney damage: medically-important reductions
  chemotherapy-induced vomiting/emesis: medically-important reductions
[4]; p = 0.0029, paclitaxel/Tavocept/cisplatin vs placebo regimen
  anorexia: reductions
[4]; p = 0.0163, paclitaxel/Tavocept/cisplatin vs placebo regimen
  fatigue: reductions
[4]; p = 0.0240, paclitaxel/Tavocept/cisplatin vs placebo regimen
  nausea/vomiting: reductions
[4]; p = 0.0859, paclitaxel/Tavocept/cisplatin vs placebo regimen
  diarrhea: reductions
[4]; p = 0.1108, paclitaxel/Tavocept/cisplatin vs placebo regimen
  insomnia: reductions
[4]; p = 0.1114, paclitaxel/Tavocept/cisplatin vs placebo regimen
  constipation: reductions
[5]; placebo arm 5
  patients with Grade 3 (severe) decrease in hematocrit levels: 1 patients
  patients with Grade 3 (severe) decrease in red blood cell: 1 patients
[5]; placebo arm 8
  patients with Grade 3 (severe) decrease in hemoglobin: 2 patients
